{"source": "patent US20110152194A1", "about": "“CHIMERIC NATRIURETIC POLYPEPTIDES AND METHODS FOR INHIBITING CARDIAC REMODELING” (MAYO FOUNDATION FOR MEDICAL EDUCATION AND RESEARCH, priority 2008, published 2011)", "key": {"normal anesthetized dogs": {"system": "normal anesthetized dogs", "conditions": "dog, in vivo"}, "[1]": {"conditions": "in vivo; cited from earlier work"}, "male mongrel dogs": {"system": "male mongrel dogs", "experiment": "In vivo actions of CD-NP, CNP and CNP-C continuous i.v. infusion in anesthetized dogs", "set-up": "species or system dog", "conditions": "for ANG II, angiotensin II / Aldosterone / CO, cardiac output / DFRNa, distal fractional reabsorption of Na+ / GFR, glomerular filtration rate / MAP, mean arterial pressure / PAP, pulmonary arterial pressure / PCWP, pulmonary capillary wedge pressure / PFRNa, proximal fractional reabsorption of Na+ / PRA, plasma renin activity / PVR, pulmonary vascular resistance / RAP, right atrial pressure / RBF / RVR, renal vascular resistance / SVR, systemic vascular resistance: dogs, 75 min i.v. infusion of CD-NP 50 ng/kg/min or equimolar CNP"}}, "note": "Several values for one entry are separate records, joined by “and”; a condition that tells them apart may be missing. Equal values may be shown once. Read-outs that look alike come from different tables or passages of the source."}
{"substance": "PSLRDPRPNAPSTSA [C-terminus]", "values": [{"measurement": "DFRNa, distal fractional sodium reabsorption", "setting": "normal anesthetized dogs", "value": "98.7 ± 0.3", "unit": "%"}, {"measurement": "GFR, glomerular filtration rate", "setting": "normal anesthetized dogs", "value": "34 ± 6", "unit": "mL/min"}, {"measurement": "PFRNa, proximal fractional sodium reabsorption", "setting": "normal anesthetized dogs", "value": "77.9 ± 2.7", "unit": "%"}, {"measurement": "RBF, renal blood flow", "setting": "normal anesthetized dogs", "value": "213 ± 19", "unit": "mL/min"}, {"measurement": "UcGMPV, urinary cGMP excretion", "setting": "normal anesthetized dogs", "value": "1674 ± 213", "unit": "pmol/min"}, {"measurement": "DFRNa, distal fractional sodium reabsorption", "setting": "normal anesthetized dogs; iv", "value": "97.8 ± 0.5", "unit": "%"}, {"measurement": "GFR, glomerular filtration rate", "setting": "normal anesthetized dogs; iv", "value": "44 ± 6", "unit": "mL/min"}, {"measurement": "PFRNa, proximal fractional sodium reabsorption", "setting": "normal anesthetized dogs; iv", "value": "71.0 ± 2.6", "unit": "%"}, {"measurement": "RBF, renal blood flow", "setting": "normal anesthetized dogs; iv", "value": "198 ± 27", "unit": "mL/min"}, {"measurement": "UcGMPV, urinary cGMP excretion", "setting": "normal anesthetized dogs; iv", "value": "2275 ± 231", "unit": "pmol/min"}, {"measurement": "natriuretic and diuretic action (urinary excretion of sodium, urine flow)", "setting": "normal anesthetized dogs; iv", "value": "natriuretic and diuretic"}]}
{"substance": "GLSKGCFGLKLDRIGSMSGLGC [CNP]", "values": [{"measurement": "half-life", "setting": "[1]", "value": "about a minute and a half"}, {"measurement": "ANG II, angiotensin II", "setting": "male mongrel dogs; 30 min I", "value": "7.5 ± 1.4", "unit": "pg/mL"}, {"measurement": "Aldosterone", "setting": "male mongrel dogs; 30 min I", "value": "21.1 ± 3.8", "unit": "ng/dL"}, {"measurement": "CO, cardiac output", "setting": "male mongrel dogs; 30 min I", "value": "3.3 ± 0.3", "unit": "L/min"}, {"measurement": "DFRNa, distal fractional reabsorption of Na+", "setting": "male mongrel dogs; 30 min I", "value": "97 ± 0.4", "unit": "%"}, {"measurement": "GFR, glomerular filtration rate", "setting": "male mongrel dogs; 30 min I", "value": "52.7 ± 6.7", "unit": "mL/min"}, {"measurement": "MAP, mean arterial pressure", "setting": "male mongrel dogs; 30 min I", "value": "127 ± 4", "unit": "mmHg"}, {"measurement": "PAP, pulmonary arterial pressure", "setting": "male mongrel dogs; 30 min I", "value": "12.8 ± 0.8", "unit": "mmHg"}, {"measurement": "PCWP, pulmonary capillary wedge pressure", "setting": "male mongrel dogs; 30 min I", "value": "4.6 ± 0.5", "unit": "mmHg"}, {"measurement": "PFRNa, proximal fractional reabsorption of Na+", "setting": "male mongrel dogs; 30 min I", "value": "73 ± 2", "unit": "%"}, {"measurement": "PRA, plasma renin activity", "setting": "male mongrel dogs; 30 min I", "value": "1.9 ± 0.6", "unit": "ng/mL/h"}, {"measurement": "PVR, pulmonary vascular resistance", "setting": "male mongrel dogs; 30 min I", "value": "1.9 ± 0.2", "unit": "mmHgL^−1 · min"}, {"measurement": "RAP, right atrial pressure", "setting": "male mongrel dogs; 30 min I", "value": "2.5 ± 0.3", "unit": "mmHg"}, {"measurement": "RBF", "setting": "male mongrel dogs; 30 min I", "value": "294.2 ± 30.8", "unit": "mL/min"}, {"measurement": "RVR, renal vascular resistance", "setting": "male mongrel dogs; 30 min I", "value": "0.47 ± 0.06 × 10^−3 mmHg · L^−1 · min"}, {"measurement": "SVR, systemic vascular resistance", "setting": "male mongrel dogs; 30 min I", "value": "39.9 ± 2.7", "unit": "mmHgL^−1 · min"}, {"measurement": "ANG II, angiotensin II", "setting": "male mongrel dogs; 60 min I", "value": "10.4 ± 2.8", "unit": "pg/mL"}, {"measurement": "Aldosterone", "setting": "male mongrel dogs; 60 min I", "value": "21.4 ± 3.7", "unit": "ng/dL"}, {"measurement": "CO, cardiac output", "setting": "male mongrel dogs; 60 min I", "value": "2.8 ± 0.3", "unit": "L/min"}, {"measurement": "DFRNa, distal fractional reabsorption of Na+", "setting": "male mongrel dogs; 60 min I", "value": "97 ± 0.9", "unit": "%"}, {"measurement": "GFR, glomerular filtration rate", "setting": "male mongrel dogs; 60 min I", "value": "49.5 ± 4.2", "unit": "mL/min"}, {"measurement": "MAP, mean arterial pressure", "setting": "male mongrel dogs; 60 min I", "value": "128 ± 4", "unit": "mmHg"}, {"measurement": "PAP, pulmonary arterial pressure", "setting": "male mongrel dogs; 60 min I", "value": "13.2 ± 0.7", "unit": "mmHg"}, {"measurement": "PCWP, pulmonary capillary wedge pressure", "setting": "male mongrel dogs; 60 min I", "value": "5.6 ± 0.7", "unit": "mmHg"}, {"measurement": "PFRNa, proximal fractional reabsorption of Na+", "setting": "male mongrel dogs; 60 min I", "value": "72 ± 1", "unit": "%"}, {"measurement": "PRA, plasma renin activity", "setting": "male mongrel dogs; 60 min I", "value": "2.5 ± 0.7", "unit": "ng/mL/h"}, {"measurement": "PVR, pulmonary vascular resistance", "setting": "male mongrel dogs; 60 min I", "value": "2.1 ± 0.3", "unit": "mmHgL^−1 · min"}, {"measurement": "RAP, right atrial pressure", "setting": "male mongrel dogs; 60 min I", "value": "2.9 ± 0.3", "unit": "mmHg"}, {"measurement": "RBF", "setting": "male mongrel dogs; 60 min I", "value": "277.8 ± 29.2", "unit": "mL/min"}, {"measurement": "RVR, renal vascular resistance", "setting": "male mongrel dogs; 60 min I", "value": "0.49 ± 0.06 × 10^−3 mmHg · L^−1 · min"}, {"measurement": "SVR, systemic vascular resistance", "setting": "male mongrel dogs; 60 min I", "value": "46.9 ± 2.7^† mmHgL^−1 · min"}, {"measurement": "ANG II, angiotensin II", "setting": "male mongrel dogs; Post-I", "value": "14.4 ± 5.0", "unit": "pg/mL"}, {"measurement": "Aldosterone", "setting": "male mongrel dogs; Post-I", "value": "22.0 ± 4.2", "unit": "ng/dL"}, {"measurement": "CO, cardiac output", "setting": "male mongrel dogs; Post-I", "value": "2.6 ± 0.1", "unit": "L/min"}, {"measurement": "DFRNa, distal fractional reabsorption of Na+", "setting": "male mongrel dogs; Post-I", "value": "97 ± 0.8", "unit": "%"}, {"measurement": "GFR, glomerular filtration rate", "setting": "male mongrel dogs; Post-I", "value": "48.8 ± 5.6", "unit": "mL/min"}, {"measurement": "MAP, mean arterial pressure", "setting": "male mongrel dogs; Post-I", "value": "128 ± 4", "unit": "mmHg"}, {"measurement": "PAP, pulmonary arterial pressure", "setting": "male mongrel dogs; Post-I", "value": "13.9 ± 0.7", "unit": "mmHg"}, {"measurement": "PCWP, pulmonary capillary wedge pressure", "setting": "male mongrel dogs; Post-I", "value": "6.4 ± 0.8", "unit": "mmHg"}, {"measurement": "PFRNa, proximal fractional reabsorption of Na+", "setting": "male mongrel dogs; Post-I", "value": "73 ± 2", "unit": "%"}, {"measurement": "PRA, plasma renin activity", "setting": "male mongrel dogs; Post-I", "value": "3.2 ± 1.0", "unit": "ng/mL/h"}, {"measurement": "PVR, pulmonary vascular resistance", "setting": "male mongrel dogs; Post-I", "value": "2.2 ± 0.4", "unit": "mmHgL^−1 · min"}, {"measurement": "RAP, right atrial pressure", "setting": "male mongrel dogs; Post-I", "value": "3.5 ± 0.5", "unit": "mmHg"}, {"measurement": "RBF", "setting": "male mongrel dogs; Post-I", "value": "272.0 ± 24.5", "unit": "mL/min"}, {"measurement": "RVR, renal vascular resistance", "setting": "male mongrel dogs; Post-I", "value": "0.49 ± 0.06 × 10^−3 mmHg · L^−1 · min"}, {"measurement": "SVR, systemic vascular resistance", "setting": "male mongrel dogs; Post-I", "value": "48.7 ± 2.5^† mmHgL^−1 · min"}, {"measurement": "ANG II, angiotensin II", "setting": "male mongrel dogs; Pre-I (pre-infusion)", "value": "11.7 ± 4.7", "unit": "pg/mL"}, {"measurement": "Aldosterone", "setting": "male mongrel dogs; Pre-I (pre-infusion)", "value": "15.1 ± 4.2", "unit": "ng/dL"}, {"measurement": "CO, cardiac output", "setting": "male mongrel dogs; Pre-I (pre-infusion)", "value": "3.8 ± 0.3", "unit": "L/min"}, {"measurement": "DFRNa, distal fractional reabsorption of Na+", "setting": "male mongrel dogs; Pre-I (pre-infusion)", "value": "98 ± 0.6", "unit": "%"}, {"measurement": "GFR, glomerular filtration rate", "setting": "male mongrel dogs; Pre-I (pre-infusion)", "value": "52.2 ± 5.3", "unit": "mL/min"}, {"measurement": "MAP, mean arterial pressure", "setting": "male mongrel dogs; Pre-I (pre-infusion)", "value": "123 ± 4", "unit": "mmHg"}, {"measurement": "PAP, pulmonary arterial pressure", "setting": "male mongrel dogs; Pre-I (pre-infusion)", "value": "13.1 ± 0.8", "unit": "mmHg"}, {"measurement": "PCWP, pulmonary capillary wedge pressure", "setting": "male mongrel dogs; Pre-I (pre-infusion)", "value": "5.0 ± 0.5", "unit": "mmHg"}, {"measurement": "PFRNa, proximal fractional reabsorption of Na+", "setting": "male mongrel dogs; Pre-I (pre-infusion)", "value": "80 ± 3", "unit": "%"}, {"measurement": "PRA, plasma renin activity", "setting": "male mongrel dogs; Pre-I (pre-infusion)", "value": "2.9 ± 1.4", "unit": "ng/mL/h"}, {"measurement": "PVR, pulmonary vascular resistance", "setting": "male mongrel dogs; Pre-I (pre-infusion)", "value": "1.8 ± 0.2", "unit": "mmHgL^−1 · min"}, {"measurement": "RAP, right atrial pressure", "setting": "male mongrel dogs; Pre-I (pre-infusion)", "value": "2.6 ± 0.3", "unit": "mmHg"}, {"measurement": "RBF", "setting": "male mongrel dogs; Pre-I (pre-infusion)", "value": "273.4 ± 25.5", "unit": "mL/min"}, {"measurement": "RVR, renal vascular resistance", "setting": "male mongrel dogs; Pre-I (pre-infusion)", "value": "0.49 ± 0.07 × 10^−3 mmHg · L^−1 · min"}, {"measurement": "SVR, systemic vascular resistance", "setting": "male mongrel dogs; Pre-I (pre-infusion)", "value": "33.8 ± 2.9", "unit": "mmHgL^−1 · min"}]}
{"substance": "B-type natriuretic peptide [BNP]", "values": [{"measurement": "GFR", "setting": "normal anesthetized dogs", "value": "lack of increase"}]}
{"substance": "GLSKGCFGLKLDRIGSMSGLGCGKSLG [CNP-C]", "values": [{"measurement": "ANG II", "setting": "male mongrel dogs; dog, in vivo, iv", "value": "did not result in any significant changes"}, {"measurement": "GFR", "setting": "male mongrel dogs; dog, in vivo, iv", "value": "did not result in any significant changes"}, {"measurement": "PRA", "setting": "male mongrel dogs; dog, in vivo, iv", "value": "did not result in any significant changes"}, {"measurement": "Pulmonary capillary wedge pressure", "setting": "male mongrel dogs; dog, in vivo, iv", "value": "4.3±0.8 mmHg and 3.4±0.8 mmHg"}, {"measurement": "diuresis", "setting": "male mongrel dogs; dog, in vivo, iv", "value": "did not result in any significant changes"}, {"measurement": "mean arterial pressure", "setting": "male mongrel dogs; dog, in vivo, iv", "value": "132±6 mmHg and 128±5 mmHg"}, {"measurement": "natriuresis", "setting": "male mongrel dogs; dog, in vivo, iv", "value": "did not result in any significant changes"}, {"measurement": "plasma cGMP", "setting": "male mongrel dogs; dog, in vivo, iv", "value": "did not result in any significant changes"}, {"measurement": "urinary cGMP excretion", "setting": "male mongrel dogs; dog, in vivo, iv", "value": "did not result in any significant changes"}]}
